According to article PMC6268188, “Comparative Studies of the (Anti) Mutagenicity of Baccharis dracunculifolia and Artepillin C by the Bacterial Reverse Mutation Test” (Molecules, 2012):
“And” between values parts separate entries of the source, which are not always exact repeats. Equal values may be shown once. Read-outs that look alike come from different tables or passages of the source. Marks after values point to notes of the source that are not given here.

Columns and labels:
[1] = tested on: S. typhimurium TA98; settings: positive control, 1.25 μg/ plate, TA 98, + S9
[2] = tested on: S. typhimurium TA97a; settings: mutagen alone (Ctrol +), 1.25 μg/ plate, TA 97a, + S9; listed as AA
[3] = tested on: S. typhimurium TA97a; settings: positive control, 1.25 μg/ plate, TA 97, + S9
[4] = tested on: S. typhimurium TA100; settings: positive control, 1.25 μg/ plate, TA 100, + S9
[5] = tested on: S. typhimurium TA100

Compound	Number of revertants (M ± SD)/ plate [1]	Number of revertants (M ± SD)/ plate [2]	Number of revertants (M ± SD)/ plate [3]	Number of revertants (M ± SD)/ plate [4]	Number of revertants (M ± SD)/ plate [5]
Nc1ccc2cc3ccccc3cc2c1 [2-anthramine, 2-aminoanthracene, reference compound]	1567 ± 115 ^e revertants/plate and 1498 ± 33^ e revertants/plate	2312 ± 81 revertants/plate and 1861 ± 23 revertants/plate	1789 ± 89 ^e revertants/plate and 1861 ± 23 ^e revertants/plate	1456 ± 78 ^e revertants/plate and 1072 ± 25^ e revertants/plate	–
aflatoxin B1 [AFB1, reference compound]	–	–	–	–	2171 ± 33 revertants/plate and 2200 ± 140 revertants/plate
